Reference: US12371454B2, “Cyclic peptide compound having Kras inhibitory action” (priority 2019, dated 2025)
Positions of bridges follow the written chain, without caps; N, C: chain ends. Non-standard residues stand in square brackets, D forms with d. Residues, ends and D or L forms follow the SMILES beside them. *: point of attachment. hPhe(3-Cl-4-CF3) = N[C@@H](CCc1ccc(C(F)(F)F)c(Cl)c1)C(=O)O; NMePhe(4-CF3) = CN[C@@H](Cc1ccc(C(F)(F)F)cc1)C(=O)O; 3Oxa8azabicyclo(3.2.1)octane = C1CC2COCC1N2*; NMePhe(4-Br) = CN[C@@H](Cc1ccc(Br)cc1)C(=O)O; NMePhe(4-Me) = CN[C@@H](Cc1ccc(C)cc1)C(=O)O; NMeGly(cPent) = CN[C@H](C(=O)O)C1CCCC1; NMeCha = CN[C@@H](CC1CCCCC1)C(=O)O; NMeChg = CN[C@H](C(=O)O)C1CCCCC1; NMeF = CN[C@@H](Cc1ccccc1)C(=O)O; NMeI = CC[C@H](C)[C@H](NC)C(=O)O; NMeD = CN[C@@H](CC(=O)O)C(=O)O; NMeL = CN[C@@H](CC(C)C)C(=O)O; NMeNva = CCC[C@H](NC)C(=O)O; NMeV = CN[C@H](C(=O)O)C(C)C; NMeAbu = CC[C@H](NC)C(=O)O; NMeS = CN[C@@H](CO)C(=O)O; Morpholide = C1CN(*)CCO1; NMeA = CN[C@@H](C)C(=O)O; Piperidide = C1CCN(*)CC1; Pyrrolidide = C1CCN(*)C1; Ac5c = NC1(C(=O)O)CCCC1; Aze = O=C(O)[C@@H]1CCN1; Sar = CNCC(=O)O; Propyl = CCC*

Assays:
[1] = tested on: Human pancreatic cancer cell line AsPC-1; assay: Measurement of AsPC-1 cell growth inhibition (AsPC-1 CGI); format: cell-based; details: 96 h
In short: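 AsPC-1 cells in 15% FBS RPMI-1640 were exposed to test compound for 96 hours at 37° C, with CellTiter-Glo as endpoint.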

[2] = molecular target: T1, Kras and SOS1 (biotin-tagged human Kras loaded with GDP, His-tagged human SOS1) (Homo sapiens, UniProt P01116, G12D); assay: Protein-protein interaction inhibition between Kras and SOS1 (KrasGl2D-SOS PPI) using AlphaScreen; format: binding; details: AlphaScreen; biotin-tagged human Kras loaded with GDP, His-tagged human SOS1; read-out: KRAS G12D-SOS PPI IC50
T1 construct: made in house; host or cells: E. coli (stated for Kras only)
T1 sequence (P01116 1-188 isoform P01116-2 G12D): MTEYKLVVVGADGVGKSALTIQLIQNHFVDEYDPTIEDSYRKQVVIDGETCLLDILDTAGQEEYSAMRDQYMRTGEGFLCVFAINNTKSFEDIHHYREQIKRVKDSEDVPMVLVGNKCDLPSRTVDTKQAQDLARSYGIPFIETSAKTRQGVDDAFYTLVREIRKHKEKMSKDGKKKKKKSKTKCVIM
In short: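 Kras was produced in E. coli, purified, then loaded with GDP. It was paired via streptavidin acceptor beads with His-SOS1 held on nickel donor beads, and proximity signal at 520-620 nm was read after 680 nm illumination.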

Structure (SMILES): CC[C@H](C)[C@@H]1NC(=O)[C@H](CC2CCCCC2)N(C)C(=O)C[C@@H](C(=O)N2CCCCC2)N(C)C(=O)[C@H](C2CCCCC2)N(C)C(=O)C2(CCCC2)NC(=O)[C@@H]2CCCN2C(=O)[C@H](CCc2ccc(C(F)(F)F)c(Cl)c2)NC(=O)CN(C)C(=O)[C@H](CC2CCCCC2)N(C)C(=O)CN(C)C(=O)CN(C)C1=O [Compound 983] ([NMeCha]I[Sar][Sar][NMeCha][Sar][hPhe(3-Cl-4-CF3)]P[Ac5c][NMeChg][NMeD]-Piperidide; lactam N-11)
- IC50 [1]: 100 to 500 nM
- IC50 [2]: 1.8 nM

Structure (SMILES): CC[C@H](C)[C@@H]1NC(=O)[C@H](CC(C)C)N(C)C(=O)C[C@@H](C(=O)N2CCCC2)N(C)C(=O)[C@H](C2CCCC2)N(C)C(=O)C2(CCCC2)NC(=O)[C@@H]2CCCN2C(=O)[C@H](CCc2ccc(C(F)(F)F)c(Cl)c2)NC(=O)CN(C)C(=O)[C@H](Cc2ccc(C)cc2)N(C)C(=O)[C@@H]2CCN2C(=O)[C@H](C)N(C)C1=O [Compound 1840] ([NMeL]I[NMeA][Aze][NMePhe(4-Me)][Sar][hPhe(3-Cl-4-CF3)]P[Ac5c][NMeGly(cPent)][NMeD]-Pyrrolidide; lactam N-11)
- IC50 [1]: 20 to 50 nM
- IC50 [2]: 1.2 nM

Structure (SMILES): CCC[C@H]1C(=O)N(C)[C@H](C(=O)N2CCCCC2)CC(=O)N(C)[C@@H](CC(C)C)C(=O)N[C@@H]([C@@H](C)CC)C(=O)N(C)CC(=O)N(C)CC(=O)N(C)[C@@H](CC2CCCCC2)C(=O)N(C)CC(=O)N[C@@H](CCc2ccc(C(F)(F)F)c(Cl)c2)C(=O)N2CCC[C@H]2C(=O)NC2(CCCC2)C(=O)N1C [Compound 548] ([NMeL]I[Sar][Sar][NMeCha][Sar][hPhe(3-Cl-4-CF3)]P[Ac5c][NMeNva][NMeD]-Piperidide; lactam N-11)
- IC50 [1]: 100 to 500 nM
- IC50 [2]: 1.6 nM

Structure (SMILES): CC[C@H](C)[C@@H]1NC(=O)[C@H](CC(C)C)N(C)C(=O)C[C@@H](C(=O)N2CCCCC2)N(C)C(=O)[C@H](C(C)C)N(C)C(=O)C2(CCCC2)NC(=O)[C@@H]2CCCN2C(=O)[C@H](CCc2ccc(C(F)(F)F)c(Cl)c2)NC(=O)CN(C)C(=O)[C@H](Cc2ccc(Br)cc2)N(C)C(=O)CN(C)C(=O)CN(C)C1=O [Compound 1576] ([NMeL]I[Sar][Sar][NMePhe(4-Br)][Sar][hPhe(3-Cl-4-CF3)]P[Ac5c][NMeV][NMeD]-Piperidide; lactam N-11)
- IC50 [1]: 100 to 500 nM
- IC50 [2]: 5.1 nM

Structure (SMILES): CCCOC[C@H]1C(=O)N(C)CC(=O)N[C@@H](CCc2ccc(C(F)(F)F)c(Cl)c2)C(=O)N2CCC[C@H]2C(=O)NC2(CCCC2)C(=O)N(C)[C@@H](C2CCCCC2)C(=O)N(C)[C@H](C(=O)N2CCCC2)CC(=O)N(C)[C@@H](CC(C)C)C(=O)N[C@@H]([C@@H](C)CC)C(=O)N(C)CC(=O)N(C)CC(=O)N1C [Compound 2006] ([NMeL]I[Sar][Sar][NMeS](Propyl)[Sar][hPhe(3-Cl-4-CF3)]P[Ac5c][NMeChg][NMeD]-Pyrrolidide; lactam N-11)
- IC50 [1]: 50 to 100 nM
- IC50 [2]: 0.62 nM

Structure (SMILES): CC[C@H](C)[C@@H]1NC(=O)[C@H](CC(C)C)N(C)C(=O)C[C@@H](C(=O)N(C)C)N(C)C(=O)[C@H]([C@@H](C)CC)N(C)C(=O)C2(CCCC2)NC(=O)[C@H](Cc2ccccc2)N(C)C(=O)[C@H](CCc2ccc(C(F)(F)F)c(Cl)c2)NC(=O)CN(C)C(=O)[C@H](Cc2ccc(C)cc2)N(C)C(=O)[C@@H]2CCN2C(=O)[C@H](C)N(C)C1=O [Compound 958] ([NMeL]I[NMeA][Aze][NMePhe(4-Me)][Sar][hPhe(3-Cl-4-CF3)][NMeF][Ac5c][NMeI][NMeD]-NMe2; lactam N-11)
- IC50 [1]: 20 to 50 nM
- IC50 [2]: 2.1 nM

Structure (SMILES): CC[C@H](C)[C@@H]1NC(=O)[C@H](CC)N(C)C(=O)C[C@@H](C(=O)N2CCCC2)N(C)C(=O)[C@H](C2CCCCC2)N(C)C(=O)C2(CCCC2)NC(=O)[C@@H]2CCCN2C(=O)[C@H](CCc2ccc(C(F)(F)F)c(Cl)c2)NC(=O)CN(C)C(=O)[C@H](Cc2ccc(C)cc2)N(C)C(=O)CN(C)C(=O)CN(C)C1=O [Compound 1905] ([NMeAbu]I[Sar][Sar][NMePhe(4-Me)][Sar][hPhe(3-Cl-4-CF3)]P[Ac5c][NMeChg][NMeD]-Pyrrolidide; lactam N-11)
- IC50 [1]: 20 to 50 nM
- IC50 [2]: 0.33 nM

Structure (SMILES): CCC[C@H]1C(=O)N[C@@H]([C@@H](C)CC)C(=O)N(C)CC(=O)N(C)CC(=O)N(C)[C@@H](Cc2ccc(C)cc2)C(=O)N(C)CC(=O)N[C@@H](CCc2ccc(C(F)(F)F)c(Cl)c2)C(=O)N2CCC[C@H]2C(=O)NC2(CCCC2)C(=O)N(C)[C@@H](C2CCCCC2)C(=O)N(C)[C@H](C(=O)N2C3CCC2COC3)CC(=O)N1C [Compound 1994] ([NMeNva]I[Sar][Sar][NMePhe(4-Me)][Sar][hPhe(3-Cl-4-CF3)]P[Ac5c][NMeChg][NMeD]-{3Oxa8azabicyclo(3.2.1)octane}; lactam N-11)
- IC50 [1]: 50 to 100 nM
- IC50 [2]: 0.58 nM

Structure (SMILES): CC[C@H](C)[C@@H]1NC(=O)[C@H](CC(C)C)N(C)C(=O)C[C@@H](C(=O)N2CCOCC2)N(C)C(=O)[C@H](C2CCCCC2)N(C)C(=O)C2(CCCC2)NC(=O)[C@@H]2CCCN2C(=O)[C@H](CCc2ccc(C(F)(F)F)c(Cl)c2)NC(=O)CN(C)C(=O)[C@H](Cc2ccc(C(F)(F)F)cc2)N(C)C(=O)CN(C)C(=O)CN(C)C1=O [Compound 1948] ([NMeL]I[Sar][Sar][NMePhe(4-CF3)][Sar][hPhe(3-Cl-4-CF3)]P[Ac5c][NMeChg][NMeD]-Morpholide; lactam N-11)
- IC50 [1]: 20 to 50 nM
- IC50 [2]: 0.54 nM
